From patent US11684644B2, “Composition for promoting absorption of phytochemicals” (MEIJI CO., LTD., priority 2018, dated 2023)
Where two headings read alike, the source gives them in different places. One block for each compound: values may come before it.

How the values were obtained:
[1] = Evaluation for dissolvability of phytochemical (dissolution rate in water); settings: for Dissolution rate: ultrapure water, shaken for 3 hours, centrifuged supernatant
Text: In the present invention, the “dissolution rate” is an index indicating dissolvability of a compound into water, and is also represented by the value, in terms of the percentage (%), obtained by dividing a concentration (w/v) of the compound in a supernatant, which is obtained by shaking the compound in pure water to dissolve the compound therein and by centrifuging the solution, by a concentration (w/v) of the compound in pure water before being dissolved therein. The concentration may be measured by using a spectrophotometer. […] The temperature condition in the measurement of the “dissolution rate” is set to 21±2° C.
Furthermore, 10 mL of ultrapure water was added to the glucoside phytochemical such that the amount of aglycone (portion other than carbohydrate obtained by hydrolysis of glucoside) can be equal to 33.3 mg; namely, 67.3 mg of rutin (33.3 mg of quercetin); 89.6 mg of α-glucosyl rutin (33.3 mg of quercetin); 67.3 mg of hesperidin (33.3 mg of hesperetin); or 71.0 mg of naringin (33.3 mg of naringenin). As for the terpenoids, in accordance with the administering amount used in Experiments, 10 mL of ultrapure water was added to 3.3 mg of each of β-carotene and lycopene. The solutions thus prepared were shaken for 3 hours, and then, were centrifuged at 2000×g for 10 minutes. The centrifuged supernatants were filtrated by using a 0.45 μL filter. […] Each compound was dissolved in 80% methanol or methanol to obtain a calibration curve; and then, the concentration of the centrifuged supernatant was obtained. A series of the operations above were carried out under the temperature condition of 21±2° C. The dissolution rate was calculated in accordance with the following formula. Dissolution rate (%)=[(concentration of the centrifuged supernatant after dissolution by shaking (w/v))+(concentration of the solution before dissolution by shaking (w/v)]×100

[2] = Experiment 3: promoting absorption of β-carotene, yogurts of strain combinations; format: in vivo; settings: male, SD, oral; rat serum, 5 mg/kg-body weight β-carotene, 11.3 g/kg-body weight yogurt, up to 480 minutes; read-out: Area Under the blood concentration-time Curve (AUC) of β-carotene (converted)
Experimental: (§1) Column temperature was set at 40° C.
The yogurts thus obtained contained 15 μg/g, 54 μg/g, and 67 μg/g of the polysaccharide, respectively.

[3] = Experiment 5: promoting absorption of β-carotene, comparison with other absorption promotors; format: in vivo; settings: male, SD, oral; rat serum, 5 mg/kg-body weight β-carotene, 70 mg/kg-body weight polysaccharide, up to 480 minutes; read-out: Area Under the blood concentration-time Curve (AUC) of β-carotene (converted)
Experimental: A part of the yogurt of Experiment 4 (Lactobacillus bulgaricus OLL1251 and Streptococcus thermophilus OLS3290) was taken; and then, to the supernatant thereof was added ethanol the amount of which was three times as much as the supernatant. The resulting mixture was kept in a frozen state, and thereafter, the supernatant of the mixture was centrifuged to obtain a precipitate. This precipitate was freeze-dried to obtain a polysaccharide concentrate. In 11.3 g of the yogurt, 70 mg of the polysaccharide concentrate was included. Hereinafter, the polysaccharide concentrate obtained is called “lactic acid bacterium-originated polysaccharide concentrate”.

[4] = Experiment 1: promoting absorption of β-carotene, yogurts of OLL1251 and other strains; format: in vivo; settings: male, SD, oral; rat serum, 5 mg/kg-body weight β-carotene, 11.3 g/kg-body weight yogurt, up to 480 minutes; read-out: Area Under the blood concentration-time Curve (AUC) of β-carotene (converted)
Experimental: as §1
The yogurts thus obtained contained 136 μg/g, 88 μg/g, and 68 μg/g of the polysaccharide, respectively.

in vivo = settings: male, SD, rat, 5 mg/kg
[5] = concentration of the centrifuged supernatant after shaking in ultrapure water, 21±2° C., glucosides in terms of the aglycone

Compound: CC1=C(/C=C/C(C)=C/C=C/C(C)=C/C=C/C=C(C)/C=C/C=C(C)/C=C/C(=O)[C@]2(C)C[C@@H](O)CC2(C)C)C(C)(C)C[C@H](O)C1 [Capsanthin]
- Saturated solubility [1]: 0.1 or less mg/100 g
- Dissolution rate ([1]; 21±2° C.): 0.1% or less

Compound: O=c1c(-c2ccc(O)cc2)coc2cc(O)cc(O)c12 [Genistein]
- Saturated solubility [1, 5]: 0.6 mg/100 g
- Dissolution rate ([1]; 21±2° C.): 0.2%

Compound: COc1ccc([C@@H]2CC(=O)c3c(O)cc(O[C@@H]4O[C@H](CO[C@@H]5O[C@@H](C)[C@H](O)[C@@H](O)[C@H]5O)[C@@H](O)[C@H](O)[C@H]4O)cc3O2)cc1O [Hesperidin]
- Saturated solubility [1, 5]: 0.5 mg/100 g
- Dissolution rate ([1]; 21±2° C.): 0.2%

Compound: O=c1c(O)c(-c2ccc(O)cc2)oc2cc(O)cc(O)c12 [Kaempferol]
- Saturated solubility [1]: 0.1 mg/100 g
- Dissolution rate ([1]; 21±2° C.): 0.1% or less

Compound: O=c1cc(-c2ccc(O)c(O)c2)oc2cc(O)cc(O)c12 [Luteolin]
- Saturated solubility [1]: 0.1 or less mg/100 g
- Dissolution rate ([1]; 21±2° C.): 0.1% or less

Compound: O=C1C[C@@H](c2ccc(O)cc2)Oc2cc(O)cc(O)c21 [Naringenin]
- Saturated solubility [1]: 1.1 mg/100 g
- Dissolution rate ([1]; 21±2° C.): 0.3%

Compound: O=c1c(O)c(-c2ccc(O)c(O)c2)oc2cc(O)cc(O)c12 [Quercetin]
- Saturated solubility [1]: 0.1 mg/100 g
- Dissolution rate ([1]; 21±2° C.): 0.1% or less

Compound: C[C@@H]1O[C@@H](OC[C@H]2O[C@@H](Oc3c(-c4ccc(O)c(O)c4)oc4cc(O)cc(O)c4c3=O)[C@H](O)[C@@H](O)[C@@H]2O)[C@H](O)[C@H](O)[C@H]1O [Rutin]
- Saturated solubility [1]: 1.0 mg/100 g

Compound: CC1=C(/C=C/C(C)=C/C=C/C(C)=C/C=C/C=C(C)/C=C/C=C(C)/C=C/C2=C(C)C[C@@H](O)CC2(C)C)C(C)(C)CCC1 [β-Cryptoxanthin]
- Saturated solubility [1]: 0.1 or less mg/100 g
- Dissolution rate ([1]; 21±2° C.): 0.1% or less

Compound: α-Glucosyl rutin
- Saturated solubility [1]: 295 mg/100 g
- Dissolution rate ([1]; 21±2° C.): 89%

Further lines, with some results ahead:

- Saturated solubility [1]: 287 mg/100 g
Compound: Oc1cc(O)c2c(c1)O[C@H](c1ccc(O)c(O)c1)[C@H](O)C2 [Epicatechin]

- Saturated solubility [1]: 0.1 or less mg/100 g
- Dissolution rate ([1]; 21±2° C.): 0.1% or less
Compound: CC1=C[C@H](O)CC(C)(C)[C@H]1/C=C/C(C)=C/C=C/C(C)=C/C=C/C=C(C)/C=C/C=C(C)/C=C/C1=C(C)C[C@@H](O)CC1(C)C [Lutein]

- Saturated solubility [1]: 0.1 or less mg/100 g
- Dissolution rate ([1]; 21±2° C.): 0.1% or less
Compound: CC(C)=CCC/C(C)=C/C=C/C(C)=C/C=C/C(C)=C/C=C/C=C(C)/C=C/C=C(C)/C=C/C=C(\C)CCC=C(C)C [Lycopene]

- Saturated solubility [1]: 55 mg/100 g
- Dissolution rate ([1]; 21±2° C.): 17%
Compound: C[C@@H]1O[C@@H](O[C@H]2[C@H](Oc3cc(O)c4c(c3)O[C@H](c3ccc(O)cc3)CC4=O)O[C@H](CO)[C@@H](O)[C@@H]2O)[C@H](O)[C@H](O)[C@H]1O [Naringin]

- Saturated solubility [1]: 0.1 or less mg/100 g
- Dissolution rate ([1]; 21±2° C.): 0.1% or less
Compound: CC1=CCCC(C)(C)C1/C=C/C(C)=C/C=C/C(C)=C/C=C/C=C(C)/C=C/C=C(C)/C=C/C1=C(C)CCCC1(C)C (stereo not drawn) [α-Carotene]

- Saturated solubility [1]: 0.1 or less mg/100 g
- Dissolution rate ([1]; 21±2° C.): 0.1% or less
- AUC (in vivo): 0.11 µg·h/mL
Compound: CC1=C(/C=C/C(C)=C/C=C/C(C)=C/C=C/C=C(C)/C=C/C=C(C)/C=C/C2=C(C)CCCC2(C)C)C(C)(C)CCC1 [β-Carotene]
- AUC [2]: 0.0888 µg·h/mL
- AUC [3]: 0.131 µg·h/mL
- AUC [4]: 0.075 µg·h/mL
